Results from PMC3392958, “Assay Format as a Critical Success Factor for Identification of Novel Inhibitor Chemotypes of Tissue-Nonspecific Alkaline Phosphatase from High-Throughput Screening” (Molecules, 2010).
Read-outs that look alike come from different tables or passages of the source. Values belong to the compound of their own block, whether it stands above or below them.

Legend:
TNAP [1] = molecular target: T1, TNAP (Homo sapiens, UniProt P05186); experiment: TNAP luminescent assay (CDP-star substrate, 100 mM DEA); format: biochemical; settings: for improvement in TNAP potency over parent compound: MLS-0091995 vs CID-646303, MLS-0111547 vs MLS-0004120
T1 construct: made in house; host or cells: COS-1 cells, transient expression; dialyzed serum-free conditioned medium
T1 sequence (P05186 18-501 limits assumed): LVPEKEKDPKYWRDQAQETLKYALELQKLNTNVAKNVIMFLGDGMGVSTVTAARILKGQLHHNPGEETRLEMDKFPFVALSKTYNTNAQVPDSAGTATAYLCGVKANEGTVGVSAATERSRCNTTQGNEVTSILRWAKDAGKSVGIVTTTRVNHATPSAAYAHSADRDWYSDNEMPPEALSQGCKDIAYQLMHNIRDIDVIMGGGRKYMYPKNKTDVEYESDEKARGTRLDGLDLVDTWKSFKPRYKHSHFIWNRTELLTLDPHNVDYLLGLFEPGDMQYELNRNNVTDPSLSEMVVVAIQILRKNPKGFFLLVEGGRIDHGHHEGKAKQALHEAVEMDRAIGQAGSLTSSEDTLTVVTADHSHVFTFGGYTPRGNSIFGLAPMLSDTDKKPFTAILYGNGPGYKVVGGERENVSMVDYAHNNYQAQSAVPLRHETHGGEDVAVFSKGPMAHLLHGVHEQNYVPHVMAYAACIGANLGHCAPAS
Experimental: (§1) Development of the novel luminescent TNAP assay using CDP-star substrate and detailed protocol of its application for HTS is described in more detail elsewhere. […] Briefly, the assay was 50 μM CDP-star substrate in assay buffer containing 100 mM DEA-HCl (pH 9.8), 1 mM MgCl2, and 20 μM ZnCl2. The luminescence signal was measured after a 30-min incubation at room temperature on an EnVision plate reader (PerkinElmer, Waltham, MA). […] Detailed protocols can be found in the respective AIDs, however, the final buffer conditions were 100 mM DEA, pH 9.8, 1.0 mM MgCl2, 0.02 mM ZnCl2 for both PLAP and IAP.

human PLAP = molecular target: T2, human PLAP (Homo sapiens, UniProt P05187); experiment: PLAP luminescent assay (CDP-star); format: biochemical
T2 construct: made in house; host or cells: COS-1 cells, transient expression; dialyzed serum-free conditioned medium
Experimental: (§2) Selectivity of Primary Actives Against other Phosphatases: To assess the selectivity of compounds across the alkaline phosphatase family, luminescent assays were developed for human PLAP and human IAP with the same CDP-Star reagent.
as §1

IAP = molecular target: T3, IAP (Homo sapiens, UniProt P09923); experiment: IAP luminescent assay (CDP-star); format: biochemical
T3 construct: made in house; host or cells: COS-1 cells, transient expression; dialyzed serum-free conditioned medium
T3 sequence (P09923 20-503 limits assumed): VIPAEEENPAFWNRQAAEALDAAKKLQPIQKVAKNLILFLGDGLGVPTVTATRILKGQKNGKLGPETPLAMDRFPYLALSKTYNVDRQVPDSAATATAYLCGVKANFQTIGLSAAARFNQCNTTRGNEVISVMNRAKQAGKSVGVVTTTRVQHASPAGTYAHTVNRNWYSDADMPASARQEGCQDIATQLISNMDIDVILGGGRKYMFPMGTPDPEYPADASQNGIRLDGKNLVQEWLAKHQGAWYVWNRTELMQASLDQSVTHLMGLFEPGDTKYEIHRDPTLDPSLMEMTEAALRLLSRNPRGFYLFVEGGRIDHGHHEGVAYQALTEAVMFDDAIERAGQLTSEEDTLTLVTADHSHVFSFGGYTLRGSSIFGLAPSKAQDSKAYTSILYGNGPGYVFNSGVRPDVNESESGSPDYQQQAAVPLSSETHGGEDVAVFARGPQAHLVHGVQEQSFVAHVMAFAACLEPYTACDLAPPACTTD
Experimental: as §2, §1

TNAP [2] = molecular target: T1, TNAP; experiment: TNAP colorimetric assay (pNPP substrate, OD405, 1M DEA); format: biochemical
Experimental: (§3) The colorimetric TNAP assay was performed as previously described with slight modifications.

TNAP [3] = molecular target: T1, TNAP; experiment: TNAP colorimetric malachite green phosphate detection (MG) assay; format: biochemical; settings: fresh solid samples from vendors; read-out: IC50 SAR-MG
Experimental: as §3

TNAP [4] = molecular target: T1, TNAP; set-up: method as in PMID 19556612; settings: three DEA concentrations tested; cited from earlier work
[5] = optimized pyrazole series, read-out: TNAP Lumi IC50
[6] = TNAP, read-out: IC50 (Figure 6, pyrazole series optimization)
[7] = luminescence-based assay, 0.1M DEA, read-out: TNAP IC50
[8] = phtalimide triazole series, read-out: IC50 TNAP- Lumi
[9] = phtalimide triazole series, read-out: IC50 IAP-Lumi
[10] = read-out: Selectivity Panel IC50 PLAP
[11] = compounds from MLSMR in liquid form, read-out: IC50 HTS-Color
[12] = fresh solid samples from vendors, read-out: IC50 SAR-Color
[13] = compounds from MLSMR in liquid form, read-out: IC50 HTS-Lumi
[14] = fresh solid samples from vendors, read-out: IC50 SAR-Lumi
[15] = read-out: Selectivity Panel IC50 TNAP
[16] = read-out: Selectivity Panel IC50 IAP
[17] = catechol series, read-out: PLAP IC50
[18] = bisarylsulfonamide series, NA = inactive (up to 100 µM), read-out: TNAP-Lumi IC50
[19] = catechol series, read-out: IAP IC50

T2 sequence (P05187 23-506 limits assumed): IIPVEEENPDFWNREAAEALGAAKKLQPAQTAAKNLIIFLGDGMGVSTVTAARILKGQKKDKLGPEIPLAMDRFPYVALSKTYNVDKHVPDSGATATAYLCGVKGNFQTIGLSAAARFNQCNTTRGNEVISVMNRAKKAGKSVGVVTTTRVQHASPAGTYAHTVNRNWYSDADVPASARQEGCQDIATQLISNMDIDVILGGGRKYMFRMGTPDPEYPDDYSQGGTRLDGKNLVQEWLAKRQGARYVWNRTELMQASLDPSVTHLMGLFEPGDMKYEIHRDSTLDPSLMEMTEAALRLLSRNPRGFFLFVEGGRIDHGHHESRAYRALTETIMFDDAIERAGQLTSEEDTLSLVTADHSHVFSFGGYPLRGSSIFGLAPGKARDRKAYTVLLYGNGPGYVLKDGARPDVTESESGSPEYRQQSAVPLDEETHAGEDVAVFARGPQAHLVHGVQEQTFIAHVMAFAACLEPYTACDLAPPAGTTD

IC50 (TNAP [1]; [5]): 24 nM
SMILES: CC(C)NC(=O)c1cc(-c2ccc(Cl)cc2Cl)n[nH]1 [MLS-0146149]

activity against TNAP in vitro (TNAP [1]; luminescence-based assay): eliminates activity
SMILES: COc1ccc(OC)c(S(=O)(=O)Nc2ccc3ncccc3c2)c1 [MLS-0111639]

activity against TNAP in vitro (TNAP [1]; luminescence-based assay): inactive
SMILES: COc1ccc(OC)c(CNc2cnc3ccccc3c2)c1 [MLS-0111667]

improvement in TNAP potency over parent compound (TNAP [1]): 3 fold
IC50 (TNAP [1]; [6]): 500 nM
IC50 (TNAP [1]; [7]): 480 nM
SMILES: O=C(c1[nH]nc2c1COc1ccccc1-2)N1CCCC1 [MLS-0111547]

IC50 (TNAP [1]; [7]): > 100000 nM
SMILES: O=S(=O)(Nc1cnc2ccccc2c1)c1ccccc1 [MLS-0090845]

IC50 (TNAP [1]; [8]): 670 nM
SMILES: O=C1c2ccccc2C(=O)N1c1nc(Cc2ccccc2)n[nH]1 [MLS-0091978]

selectivity as inhibitor of PLAP over IAP (human PLAP; catechol series): 10 fold
selectivity as inhibitor of PLAP over TNAP (human PLAP; catechol series): 40 fold
SMILES: Cc1nc2ccccc2n1CC(=O)c1ccc(O)c(O)c1 [MLS-0315854]

activity against TNAP in vitro (TNAP [1]; luminescence-based assay): inactive
SMILES: COc1ccc(OC)c(C(=O)Nc2cnc3ccccc3c2)c1 [MLS-0111666]

activity against TNAP in vitro (TNAP [1]; luminescence-based assay): inactive
SMILES: COc1ccc(S(=O)(=O)Nc2cnc3ccccc3c2)cc1OC [MLS-0090842]

IC50 (TNAP [1]; [8]): 4680 nM
selectivity for IAP over TNAP (IAP): 10 fold
IC50 (IAP; [9]): 410 nM
SMILES: O=C1C2CC=CCC2C(=O)N1c1nnc(-c2ccco2)[nH]1 (centres unmarked) [MLS-0091966]

IC50 (TNAP [1]; [8]): 27900 nM
selectivity for IAP over TNAP (IAP): 40 fold
IC50 (IAP; [9]): 720 nM
SMILES: O=C1C2CC=CCC2C(=O)N1c1nnc(CCc2ccccc2)[nH]1 (centres unmarked) [MLS-0091987]

IC50 (human PLAP; [10]): > 100000 nM
IC50 (TNAP [2]; [11]): 710 nM
IC50 (TNAP [2]; [12]): 830 nM
IC50 (TNAP [3]): 950 nM
IC50 (TNAP [1]; [13]): 1800 nM
IC50 (TNAP [1]; [14]): 930 nM
IC50 (TNAP [1]; [15]): 930 nM
IC50 (IAP; [16]): > 100000 nM
SMILES: COc1ccc(C)cc1S(=O)(=O)Nc1cccnc1 [MLS-0010847]

selectivity as inhibitor of PLAP over IAP (human PLAP; catechol series): > 25 fold
selectivity as inhibitor of PLAP over TNAP (human PLAP; catechol series): more than 50 fold
SMILES: Cc1cnn(CC(=O)c2ccc(O)c(O)c2)c1 [MLS-0390945]

selectivity as inhibitor of PLAP over IAP (human PLAP; catechol series): over 27 fold
selectivity as inhibitor of PLAP over TNAP (human PLAP; catechol series): over 27 fold
IC50 (human PLAP; [17]): 4200 nM
SMILES: CCc1nccn1CC(=O)c1ccc(O)c(O)c1 [MLS-0315848]

IC50 (TNAP [1]; [5]): 75 nM
SMILES: CN(C)C(=O)c1cc(-c2ccc(Cl)cc2Cl)n[nH]1 [MLS-0146148]

reduction in TNAP potency compared with the lead structure CID-2931238 (TNAP [1]): roughly 4 fold
IC50 (TNAP [1]; [18]): 920 nM
SMILES: COc1ccc(OC)c(S(=O)(=O)Nc2cccnc2)c1 [MLS-0068486]

IC50 (TNAP [1]; [6]): 1300 nM
IC50 (TNAP [1]; [7]): 1330 nM
SMILES: O=C(O)c1[nH]nc2c1COc1ccccc1-2 [MLS-0004120]

IC50 (human PLAP; [17]): 9100 nM
SMILES: O=C(CNc1nc2ccccc2[nH]1)c1ccc(O)c(O)c1 [Compound 2]

IC50 (TNAP [1]; [8]): 1570 nM
IC50 (IAP; [9]): 1100 nM
SMILES: O=C1C2CCCCC2C(=O)N1c1nc(Cc2ccccc2)n[nH]1 (centres unmarked) [MLS-0091981]

IC50 (human PLAP; [10]): 3100 nM
IC50 (TNAP [2]; [11]): > 100000 nM
IC50 (TNAP [2]; [12]): > 100000 nM
IC50 (TNAP [3]): > 100000 nM
IC50 (TNAP [1]; [13]): 240 nM
IC50 (TNAP [1]; [8]): 210 nM
IC50 (TNAP [1]; [15]): 190 nM
IC50 (IAP; [9]): 540 nM
IC50 (IAP; [16]): 540 nM
SMILES: O=C1C2CC=CCC2C(=O)N1c1n[nH]c(Cc2ccccc2)n1 (centres unmarked) [MLS-0067142]
mechanism of TNAP inhibition with respect to DEA (TNAP [4]): competitive

IC50 (human PLAP; [17]): 2100 nM
IC50 (IAP; [19]): 30200 nM
SMILES: O=C(Cn1ccnc1)c1ccc(O)c(O)c1 [Compound 1]

reduction in TNAP potency compared with the lead structure CID-2931238 (TNAP [1]): 100 fold
IC50 (TNAP [1]; [18]): 25700 nM
SMILES: COc1cccc(S(=O)(=O)Nc2cnc3ccccc3c2)c1 [MLS-0090844]

improvement in TNAP potency over parent compound (TNAP [1]): 2 fold
IC50 (TNAP [1]; [7]): 500 nM
SMILES: COC(=O)c1cc(-c2ccc(Cl)cc2Cl)n[nH]1 [MLS-0091995]

IC50 (human PLAP; [10]): > 100000 nM
IC50 (TNAP [2]; [11]): > 100000 nM
IC50 (TNAP [2]; [12]): > 100000 nM
IC50 (TNAP [3]): > 100000 nM
IC50 (TNAP [1]; [6]): 1000 nM
IC50 (TNAP [1]; [13]): 980 nM
IC50 (TNAP [1]; [14]): 740 nM
IC50 (TNAP [1]; [15]): 740 nM
IC50 (IAP; [16]): 44000 nM
SMILES: O=C(O)c1cc(-c2ccccc2Cl)[nH]n1 [MLS-0005718]
mechanism of TNAP inhibition with respect to DEA (TNAP [4]): competitive

IC50 (TNAP [1]; [5]): 52 nM
SMILES: NNC(=O)c1cc(-c2ccc(Cl)cc2Cl)n[nH]1 [MLS-0146145]

IC50 (TNAP [1]; catechol series, read-out: TNAP IC50): 8600 nM
IC50 (IAP; [19]): 49500 nM
SMILES: Cc1cc(C)nc(SCC(=O)c2ccc(O)c(O)c2)n1 [MLS-0315687]

IC50 (human PLAP; [10]): > 100000 nM
IC50 (TNAP [2]; [11]): 21000 nM
IC50 (TNAP [2]; [12]): 46000 nM
IC50 (TNAP [3]): 74000 nM
IC50 (TNAP [1]; [13]): 3200 nM
IC50 (TNAP [1]; [14]): 4600 nM
IC50 (IAP; [16]): > 100000 nM
SMILES: Oc1cc(-c2cccc3ccccc23)[nH]n1 [MLS-0039961]
mechanism of TNAP inhibition with respect to DEA (TNAP [4]): noncompetitive

activity against TNAP in vitro (TNAP [1]; luminescence-based assay): elimination of activity
IC50 (TNAP [1]; [8]): > 100000 nM
activity against IAP (IAP): elimination of activity
IC50 (IAP; [9]): > 100000 nM
SMILES: O=C1C2CC=CCC2C(=O)N1c1nnc[nH]1 (centres unmarked) [MLS-0091980]

IC50 (TNAP [1]; [8]): 10500 nM
selectivity for IAP over TNAP (IAP): 6 fold
SMILES: O=C1C2CC=CCC2C(=O)N1c1nnc(-c2cccnc2)[nH]1 (centres unmarked) [MLS-0091977]

IC50 (TNAP [1]; [8]): > 100000 nM
SMILES: O=C1C2CCCCC2C(=O)N1c1nc(CCc2ccccc2)n[nH]1 (centres unmarked) [MLS-0091984]

IC50 (TNAP [1]; [5]): 42 nM
SMILES: O=C(NCCO)c1cc(-c2cc(F)c(Cl)cc2Cl)n[nH]1 [MLS-0146165]

IC50 (TNAP [1]; [5]): 20 nM
SMILES: O=C(NCCO)c1cc(-c2ccc(Cl)cc2Cl)n[nH]1 [MLS-0146161]

IC50 (TNAP [1]; [8]): 30600 nM
SMILES: O=C1C2C3C=CC(C3)C2C(=O)N1c1n[nH]c(CCc2ccccc2)n1 (centres unmarked) [MLS-0091982]
